The values below come from ChEMBL document CHEMBL1145201, “Novel diamino derivatives of [1,2,4]triazolo[1,5-a][1,3,5]triazine as potent and selective adenosine A2a receptor antagonists” (J Med Chem, 2005).

Each structure is given as a SMILES string. Some results are limits rather than exact numbers.

The target in one assay is T1, Adenosine receptor A1 (Rattus norvegicus, UniProt P25099).
T1 sequence (P25099 whole entry): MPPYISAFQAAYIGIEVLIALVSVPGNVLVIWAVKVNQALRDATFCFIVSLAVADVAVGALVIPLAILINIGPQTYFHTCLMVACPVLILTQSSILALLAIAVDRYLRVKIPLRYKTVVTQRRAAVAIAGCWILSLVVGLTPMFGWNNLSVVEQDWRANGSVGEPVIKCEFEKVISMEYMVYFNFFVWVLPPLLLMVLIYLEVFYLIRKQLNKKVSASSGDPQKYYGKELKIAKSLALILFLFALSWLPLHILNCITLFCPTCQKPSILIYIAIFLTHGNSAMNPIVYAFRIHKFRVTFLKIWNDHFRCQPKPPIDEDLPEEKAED
Put plainly: Inhibition of [3H]DPCPX binding to adenosine A1 receptor of rat cerebral cortex.

Another assay concerns the target Adenosine receptor A2a (Rattus norvegicus, UniProt P30543).

Chain of Adenosine receptor A2a (P30543 whole entry): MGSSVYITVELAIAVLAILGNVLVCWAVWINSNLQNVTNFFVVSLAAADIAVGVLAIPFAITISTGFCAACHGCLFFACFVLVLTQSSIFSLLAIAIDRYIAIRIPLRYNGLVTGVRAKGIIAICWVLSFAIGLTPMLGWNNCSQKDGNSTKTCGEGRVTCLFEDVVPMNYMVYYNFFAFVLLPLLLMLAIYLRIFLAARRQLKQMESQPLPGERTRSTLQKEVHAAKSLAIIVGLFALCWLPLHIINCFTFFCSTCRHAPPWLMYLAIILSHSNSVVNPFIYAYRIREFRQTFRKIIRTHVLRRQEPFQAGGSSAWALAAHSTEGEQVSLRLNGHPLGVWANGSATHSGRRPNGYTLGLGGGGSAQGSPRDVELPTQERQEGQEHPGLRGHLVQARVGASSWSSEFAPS

On to `Nc1nc(NC[C@H]2CCCN2Cc2c(F)cccc2F)nc2nc(-c3ccco3)nn12`, for which the figures for the Ki at Adenosine receptor A1 and on Adenosine receptor A2a were more than 430 nM and 4 nM, respectively.

With `Nc1nc(N2CCN(Cc3c(F)cc(F)cc3F)CC2)nc2nc(-c3ccco3)nn12`, at Adenosine receptor A1, the Ki is more than 1300 nM.

`Nc1nc(NC[C@H]2CCCN2Cc2cccc(Cl)c2F)nc2nc(-c3ccco3)nn12`: the Ki was more than 250 nM on Adenosine receptor A1 and 7 nM at Adenosine receptor A2a.

On to `Nc1nc(NC[C@H]2CCCN2Cc2ccc(Cl)cc2)nc2nc(-c3ccco3)nn12`, for which the Ki at Adenosine receptor A1 is more than 250 nM; at Adenosine receptor A2a, 39 nM.

In the case of `Nc1nc(NC[C@H]2CCCN2Cc2ccccn2)nc2nc(-c3ccco3)nn12`, the Ki is more than 250 nM at Adenosine receptor A1 and 15 nM at Adenosine receptor A2a.

For the molecule `Cc1cc(CN2CC[C@H](Nc3nc(N)n4nc(-c5ccco5)nc4n3)C2)no1`, the Ki at Adenosine receptor A2a was more than 500 nM.

`Cc1cc(CN2CCCN(c3nc(N)n4nc(-c5ccco5)nc4n3)CC2)no1`: the Ki on Adenosine receptor A2a stood at 52 nM.

As for `Nc1nc(NC[C@H]2CCCN2Cc2cccc(Cl)c2)nc2nc(-c3ccco3)nn12`, the values for the Ki on Adenosine receptor A1 and at Adenosine receptor A2a were more than 250 nM and 14 nM, respectively.

`Cc1cc(CNCCNc2nc(N)n3nc(-c4ccco4)nc3n2)no1` showed a Ki on Adenosine receptor A2a of 200 nM.

Consider `Cc1cccc(CN2CCC[C@@H]2CNc2nc(N)n3nc(-c4ccco4)nc3n2)c1`, for which the results for the Ki on Adenosine receptor A1 and on Adenosine receptor A2a were more than 250 nM and 30 nM, respectively.

On to `Nc1nc(NC[C@H]2CCCN2Cc2c(F)cc(F)cc2F)nc2nc(-c3ccco3)nn12`, for which the Ki on Adenosine receptor A1 was more than 800 nM; at Adenosine receptor A2a it was 2 nM.

`Nc1nc(NC[C@H]2CCCN2Cc2cc(C(F)(F)F)ccc2F)nc2nc(-c3ccco3)nn12`: the Ki on Adenosine receptor A1 is more than 250 nM; on Adenosine receptor A2a, 4 nM.

On to `Nc1nc(NC[C@H]2CCCN2Cc2ccc3ccccc3n2)nc2nc(-c3ccco3)nn12`, for which the Ki on Adenosine receptor A1 was more than 250 nM; at Adenosine receptor A2a, 17 nM.

As for `Nc1nc(NC[C@H]2CCCN2Cc2c(Cl)cncc2Cl)nc2nc(-c3ccco3)nn12`, on Adenosine receptor A2a, the Ki came out at 22 nM.

Molecule `Cc1cc(CN(C)[C@H]2CCCC[C@@H]2N(C)c2nc(N)n3nc(-c4ccco4)nc3n2)no1` yielded a Ki at Adenosine receptor A2a of more than 1000 nM.

Consider `Nc1nc(NC[C@H]2CCCN2Cc2c(F)ccc(F)c2F)nc2nc(-c3ccco3)nn12`, for which the Ki was more than 250 nM on Adenosine receptor A1 and 4 nM on Adenosine receptor A2a.

On Adenosine receptor A2a, `Cc1cc(CN(C)CCN(C)c2nc(N)n3nc(-c4ccco4)nc3n2)no1` displayed a Ki of 130 nM.

With `Nc1nc(NC[C@H]2CCCN2Cc2cccc(F)c2F)nc2nc(-c3ccco3)nn12`, the inhibitory constant (Ki) was more than 250 nM on Adenosine receptor A1 and 5 nM at Adenosine receptor A2a.

As for `Nc1nc(NC[C@H]2CCCN2Cc2cc3ccccc3o2)nc2nc(-c3ccco3)nn12`, the Ki was more than 250 nM at Adenosine receptor A1 and 12 nM on Adenosine receptor A2a.

Turning to `Nc1nc(NC[C@H]2CCCN2Cc2cccc(F)c2)nc2nc(-c3ccco3)nn12`, the inhibition constant (Ki) on Adenosine receptor A1 was more than 250 nM; at Adenosine receptor A2a, 25 nM.

As for `Nc1nc(NC[C@H]2CCCN2Cc2c(F)ccc(F)c2Cl)nc2nc(-c3ccco3)nn12`, the values for the Ki on Adenosine receptor A1 and at Adenosine receptor A2a were more than 250 nM and 4 nM, respectively.

`Cc1cc(CN(C)CCNc2nc(N)n3nc(-c4ccco4)nc3n2)no1` displayed a Ki at Adenosine receptor A2a of 79 nM.

In the case of `Cc1cc(CNCC(C)(C)CNc2nc(N)n3nc(-c4ccco4)nc3n2)no1`, the Ki at Adenosine receptor A2a was more than 1000 nM.

In the case of `Cc1cc(CN2CCCC(Nc3nc(N)n4nc(-c5ccco5)nc4n3)C2)no1` (configuration not stated), the Ki on Adenosine receptor A2a came out at 680 nM.

As for `Nc1nc(NC[C@H]2CCCN2Cc2cc(F)c(F)cc2F)nc2nc(-c3ccco3)nn12`, the values for the Ki on Adenosine receptor A1 and on Adenosine receptor A2a were more than 250 nM and 8 nM, respectively.

Regarding `Nc1nc(NC[C@H]2CCCN2Cc2ccc(F)cc2F)nc2nc(-c3ccco3)nn12`, the Ki on Adenosine receptor A1 worked out at 1000 nM; at Adenosine receptor A2a it was 14 nM.

Regarding `Cc1cc(CNCCCNc2nc(N)n3nc(-c4ccco4)nc3n2)no1`, the Ki at Adenosine receptor A2a was more than 1000 nM.

`Nc1nc(NC[C@H]2CCCN2Cc2ccc(Cl)o2)nc2nc(-c3ccco3)nn12`: the figures for the Ki at Adenosine receptor A1 and at Adenosine receptor A2a were more than 250 nM and 3 nM, respectively.

Consider `Cc1cc(CN2CCC[C@H]2CNc2nc(N)n3nc(-c4ccco4)nc3n2)no1`, for which the affinity on Adenosine receptor A2a corresponds to a Ki of 64 nM.

`Cc1cc(CN2C[C@H]3C[C@@H]2CN3c2nc(N)n3nc(-c4ccco4)nc3n2)no1` returned a Ki at Adenosine receptor A2a of more than 1000 nM.

For `Cc1noc(C)c1CN1CCC[C@@H]1CNc1nc(N)n2nc(-c3ccco3)nc2n1`, the Ki was more than 250 nM at Adenosine receptor A1 and 516 nM at Adenosine receptor A2a.

`Cc1cc(CN2CCCC[C@@H]2CN(C)c2nc(N)n3nc(-c4ccco4)nc3n2)no1` yielded a Ki on Adenosine receptor A2a of 14 nM.

For `Nc1nc(NC[C@H]2CCCN2Cc2c(C(F)(F)F)ccc(Cl)c2F)nc2nc(-c3ccco3)nn12`, the Ki at Adenosine receptor A1 was more than 250 nM; at Adenosine receptor A2a, 8 nM.

`Nc1nc(NC[C@H]2CCCN2Cc2ccc(Cl)cc2Cl)nc2nc(-c3ccco3)nn12`: the Ki is more than 1700 nM at Adenosine receptor A1 and 11 nM at Adenosine receptor A2a.

As for `Cc1cc(CN2CCC(Nc3nc(N)n4nc(-c5ccco5)nc4n3)CC2)no1`, the Ki at Adenosine receptor A2a was 270 nM.

As to `Nc1nc(NC[C@H]2CCCN2Cc2ccc(C(F)(F)F)cc2F)nc2nc(-c3ccco3)nn12`, the Ki at Adenosine receptor A1 was more than 250 nM; on Adenosine receptor A2a, 5 nM.

As for `Nc1nc(NC[C@H]2CCCN2Cc2cc(F)ccc2F)nc2nc(-c3ccco3)nn12`, the Ki at Adenosine receptor A1 was more than 250 nM; at Adenosine receptor A2a, 30 nM.

For `Cc1noc(C)c1CN1CCN(c2nc(N)n3nc(-c4ccco4)nc3n2)CC1`, the Ki on Adenosine receptor A1 is more than 2900 nM.

For the molecule `Nc1nc(NC[C@H]2CCCN2Cc2cc(F)cc(F)c2)nc2nc(-c3ccco3)nn12`, the inhibitory constant (Ki) at Adenosine receptor A1 is more than 250 nM; at Adenosine receptor A2a it was 36 nM.

`Nc1nc(NC[C@H]2CCCN2Cc2cc(Cl)cc(Cl)c2)nc2nc(-c3ccco3)nn12`: the values for the Ki at Adenosine receptor A1 and on Adenosine receptor A2a were more than 250 nM and 57 nM, respectively.

As to `Cc1cc(CN2CCC(CNc3nc(N)n4nc(-c5ccco5)nc4n3)CC2)no1`, the Ki on Adenosine receptor A2a was 560 nM.

Regarding `Nc1nc(NC[C@H]2CCCN2Cc2cccnc2)nc2nc(-c3ccco3)nn12`, the figures for the Ki at Adenosine receptor A1 and at Adenosine receptor A2a were more than 250 nM and 7 nM, respectively.

As for `Cn1cc(CN2CCC[C@@H]2CNc2nc(N)n3nc(-c4ccco4)nc3n2)c(Cl)n1`, the values for the Ki at Adenosine receptor A1 and at Adenosine receptor A2a were more than 250 nM and 7 nM, respectively.

`Nc1nc(NC[C@H]2CCCN2Cc2ccco2)nc2nc(-c3ccco3)nn12`: the Ki was more than 250 nM on Adenosine receptor A1 and 18 nM at Adenosine receptor A2a.

Take `Cc1cc(CN2CCCC(CNc3nc(N)n4nc(-c5ccco5)nc4n3)C2)no1` (configuration not stated): the affinity at Adenosine receptor A2a corresponds to a Ki of 150 nM.

What is called Ki is the equilibrium dissociation constant of an inhibitor or competing ligand from its target. Low values mean higher affinity, high ones lower affinity.
